According to ChEMBL document CHEMBL4196227, “Potential of PDE10A Inhibitors as Treatment for Schizophrenia and Other Neurological Disorders” (ACS Med Chem Lett, 2018):

Key:
[1] = target: cAMP and cAMP-inhibited cGMP 3',5'-cyclic phosphodiesterase 10A (Homo sapiens, UniProt Q9Y233); assay: Inhibition of recombinant PDE10A (unknown origin) using cAMP/cGMP as substrate incubated for 60 mins by HTRF assay
[2] = Clearance in human liver microsomes at 0.5 uM preincubated for 5 mins followed by NADPH addition measured after 30 mins by MSMS analysis; type: ADME, microsome; conditions: read-out: CLH
[3] = Clearance in rat liver microsomes at 0.5 uM preincubated for 5 mins followed by NADPH addition measured after 30 mins by MSMS analysis; type: ADME, microsome; conditions: read-out: CLH

cAMP and cAMP-inhibited cGMP 3',5'-cyclic phosphodiesterase 10A, sequence (Q9Y233 whole entry): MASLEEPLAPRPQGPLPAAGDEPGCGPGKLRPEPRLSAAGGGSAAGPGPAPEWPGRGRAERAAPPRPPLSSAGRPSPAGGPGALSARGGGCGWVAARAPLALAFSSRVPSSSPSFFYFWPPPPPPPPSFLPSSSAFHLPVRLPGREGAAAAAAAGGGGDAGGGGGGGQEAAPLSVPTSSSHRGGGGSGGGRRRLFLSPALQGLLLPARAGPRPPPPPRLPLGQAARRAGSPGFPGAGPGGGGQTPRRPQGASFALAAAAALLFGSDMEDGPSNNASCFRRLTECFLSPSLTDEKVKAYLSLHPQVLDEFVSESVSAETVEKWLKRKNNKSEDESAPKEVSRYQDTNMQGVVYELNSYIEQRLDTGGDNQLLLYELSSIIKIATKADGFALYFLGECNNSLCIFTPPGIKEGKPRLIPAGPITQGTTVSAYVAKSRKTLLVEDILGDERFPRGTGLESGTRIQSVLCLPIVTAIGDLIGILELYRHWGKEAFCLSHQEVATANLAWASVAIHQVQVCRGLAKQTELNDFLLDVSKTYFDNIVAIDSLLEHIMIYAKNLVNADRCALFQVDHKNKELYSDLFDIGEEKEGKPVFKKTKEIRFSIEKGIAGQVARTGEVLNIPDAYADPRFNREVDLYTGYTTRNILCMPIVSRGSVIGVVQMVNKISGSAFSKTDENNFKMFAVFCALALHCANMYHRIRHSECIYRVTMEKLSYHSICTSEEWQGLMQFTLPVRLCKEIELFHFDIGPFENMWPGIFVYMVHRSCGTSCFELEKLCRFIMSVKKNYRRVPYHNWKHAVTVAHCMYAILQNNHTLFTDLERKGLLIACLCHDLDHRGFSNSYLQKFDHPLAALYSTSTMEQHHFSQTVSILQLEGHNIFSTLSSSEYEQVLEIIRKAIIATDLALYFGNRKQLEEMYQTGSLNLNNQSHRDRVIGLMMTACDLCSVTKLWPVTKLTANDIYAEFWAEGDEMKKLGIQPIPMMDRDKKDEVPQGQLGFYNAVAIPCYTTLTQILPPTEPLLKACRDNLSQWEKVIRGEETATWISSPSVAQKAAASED

IC50 [1] [nM]	microsomal CLint at 0.5 µM [2] [µL/min/mg]	microsomal CLint at 0.5 µM [3] [µL/min/mg]	Structure (SMILES)
< 100	< 100	< 100	Cn1cc(-c2ccncc2)c(-c2ccc(C#Cc3nccn3C)cc2)n1
< 100	< 100	100 to 200	COc1cc(-c2nn(C)cc2-c2ccncc2)ccc1C#Cc1cccc(C)n1
200 to 500	< 100	< 100	Cc1cccc(C#Cc2ccc(-c3nn(C)cc3-c3cn[nH]c3)cc2)n1
< 100	< 100	< 100	Cn1cc(-c2ccncc2)c(-c2ccc(C#Cc3ccccn3)cc2)n1
100 to 200	< 100	< 100	Cn1cc(-c2ccncc2)c(-c2ccc(C#Cc3nccs3)cc2)n1
< 100	< 100	< 100	Cn1cc(-c2ccncc2)c(-c2ccc(C#Cc3ccc4ccccc4n3)cc2)n1
